Laboratory results reported in US11753445B2, “Therapeutic peptides” (COHBAR, INC., priority 2016, dated 2023).
Peptide text beside a SMILES is read from it.

System: 3T3-L1 Adipocytes
Test: Free fatty acid levels in cultured mouse 3T3-L1 adipocytes, isoproterenol stimulated (Example 2)
Assay type: cell-based
Conditions: test peptides 25 μM; isoproterenol 1 nM
Method in brief: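 Release of free fatty acids, read at 540 nm, was stimulated with 1 nM isoproterenol for 3 h in mouse 3T3-L1 adipocytes (12–17 days of differentiation). Cells were pre-exposed to 25 μM peptide for 18–20 h plus 1 h, with peptide kept in during stimulation. Values are background-subtracted and normalised to isoproterenol alone.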

Point of comparison: Ac-MRWEEMGYIFYPRKLR-NH2 [compound 186], “Free Fatty Acid Levels in 3T3-L1 Adipocytes Expressed as a Percent of Isoproterenol Control: Percent of Control Value” 102.1%. Against it:
- CC[C@H](C)[C@H](NC(=O)[C@H](Cc1ccc(O)cc1)NC(=O)CNC(=O)[C@H](C)NC(=O)[C@H](CCC(=O)O)NC(=O)[C@H](CCC(N)=O)NC(=O)[C@H](Cc1c[nH]c2ccccc12)NC(=O)[C@H](CCCNC(=N)N)NC(=O)[C@@H](C)N)C(=O)N[C@@H](C)C(=O)N[C@@H](CCC(=O)O)C(=O)N1CCC[C@H]1C(=O)N[C@@H](CCCNC(=N)N)C(=O)N[C@@H](CCCCN)C(=O)N[C@@H](CC(C)C)C(=O)N[C@H](C)C(=O)O [compound 246] (HELM PEPTIDE1{[dA].R.W.Q.E.A.G.Y.I.A.E.P.R.K.L.[dA]}$$$$V2.0) — lower, 73.9%
- Ac-ARWQEMGYIFYPRKLR-NH2 [compound 22] — lower, 78.7%
- Ac-ERWQEMGYIFYPRKLR-NH2 [compound 183] — lower, 81.6%
- Ac-LKWQEMGYIFYPLRKR-NH2 [compound 113] — lower, 82.8%
- Ac-LKWQEMGYIFYPRKLR-NH2 [compound 112] — lower, 90.5%
- Ac-LKWQEMGYIFYPRKR-NH2 [compound 117] — lower, 97.7%
- Ac-LKWQEMGYIFYPRKRL-NH2 [compound 115] — lower, 83.4%
- Ac-LKWQEMGYIFYPRLKR-NH2 [compound 114] — lower, 78.4%
- Ac-LRWQEMGYIFYPLRKR-NH2 [compound 109] — lower, 76.6%
- Ac-LRWQEMGYIFYPRKLR-NH2 [compound 108] — lower, 101.3%
- Ac-LRWQEMGYIFYPRKR-NH2 [compound 116] — lower, 101.8%
- Ac-LRWQEMGYIFYPRKRL-NH2 [compound 111] — higher, 106.0%
- Ac-LRWQEMGYIFYPRLKR-NH2 [compound 110] — lower, 82.6%
- Ac-MAWQEMGYIFYPRKLR-NH2 [compound 23] — lower, 74.7%
- Ac-MEWQEMGYIFYPRKLR-NH2 [compound 184] — lower, 97.1%
- Ac-MKWQEMGYIFYPRKLR-NH2 [compound 128] — lower, 90.0%
- Ac-MREQEMGYIFYPRKLR-NH2 [compound 185] — lower, 77.0%
- Ac-MRWAEMGYIFYPRKLR-NH2 [compound 25] — lower, 27.8%
- Ac-MRWNEMGYIFYPRKLR-NH2 [compound 133] — lower, 87.5%
- Ac-MRWQDMGYIFYPRRLR-NH2 [compound 132] — higher, 102.6%
- Ac-MRWQEEGYIFYPRKLR-NH2 [compound 187] — lower, 98.9%
- Ac-MRWQEMAYIFYPRKLR-NH2 [compound 28] — lower, 35.5%
- Ac-MRWQEMEYIFYPRKLR-NH2 [compound 188] — lower, 86.5%
- Ac-MRWQEMGEIFEPRKLR-NH2 [compound 135] — lower, 79.0%
- Ac-MRWQEMGEIFYPRKLR-NH2 [compound 189] — lower, 87.6%
- Ac-MRWQEMGYEFYPRKLR-NH2 [compound 190] — lower, 95.0%
- Ac-MRWQEMGYIEYPRKLR-NH2 [compound 191] — lower, 81.7%
- Ac-MRWQEMGYIF-NH2 [compound 64] — lower, 90.6%
- Ac-MRWQEMGYIFEPRKLR-NH2 [compound 192] — lower, 66.8%
- Ac-MRWQEMGYIFY-NH2 [compound 63] — lower, 70.5%
- Ac-MRWQEMGYIFYERKLR-NH2 [compound 193] — lower, 71.2%
- Ac-MRWQEMGYIFYPAKLR-NH2 [compound 34] — lower, 70.7%
- Ac-MRWQEMGYIFYPEKLR-NH2 [compound 194] — higher, 107.2%
- Ac-MRWQEMGYIFYPKKLR-NH2 [compound 129] — lower, 82.5%
- Ac-MRWQEMGYIFYPRALR-NH2 [compound 35] — lower, 31.3%
- Ac-MRWQEMGYIFYPRELR-NH2 [compound 195] — lower, 58.9%
- Ac-MRWQEMGYIFYPRK-NH2 [compound 60] — lower, 89.3%
- Ac-MRWQEMGYIFYPRKER-NH2 [compound 196] — lower, 80.5%
- Ac-MRWQEMGYIFYPRKL-NH2 [compound 59] — lower, 92.2%
- Ac-MRWQEMGYIFYPRKLE-NH2 [compound 197] — lower, 84.6%
- Ac-MRWQEMGYIFYPRKLK-NH2 [compound 130] — lower, 85.4%
- Ac-MRWQEMGYIFYPRRLR-NH2 [compound 131] — lower, 78.1%
- H-ERWQEAGYIAYPRKLA-OH [compound 239] — lower, 66.6%
- H-ERWQEAGYIFYPR-OH [compound 235] — lower, 71.8%
- H-ERWQEAGYIFYPRKLA-OH [compound 233] — lower, 69.7%
- H-ERWQEMGYIFYPRKLR-OH [compound 168] — lower, 52.2%
